Experimental data taken from patent US8158621B2, “Methods of treating or preventing autoimmune diseases with 2,4-pyrimidinediamine compounds” (Rigel Pharmaceuticals, Inc., priority 2002, dated 2012).
Several values for one entry are separate records, joined by “and”; a condition that tells them apart may be missing. Identical values can stand only once. Like-named read-outs stand apart in the source and are kept apart here.

What was measured:
[1] = tested on: bone marrow derived mast cells (BMMC); test: BMMC high cell density IgE activation: hexosaminidase; format: cell-based, mouse
Primary T-cells [2] = test: Primary T-cell cytokine production (αCD3/αCD28): IL-2; format: cell-based, human; conditions: read-out: 1° T-Cell IL2 IC50
Summary of the method: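 Healthy-donor PBMC or rIL-2-expanded T cells, monocyte-depleted by adherence, […] in Yssel's medium with 1% human AB serum; compound preincubation 30 min at 37° C. Stimulated 18 hr on plate-bound 5 μg/ml αCD3 + 10 μg/ml αCD28; supernatant IL-2 by ELISA (450 nm, standard curve) or Luminex; IC50 versus solvent.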

Syk kinase = molecular target: T1, Syk kinase (Homo sapiens, UniProt P43405); test: Syk kinase biochemical fluorescence polarization assay; conditions: isolated Syk kinase, fluorescence polarization, 4 uM ATP
T1 construct: purchased Upstate, Lake Placid NY

Primary T-cells [3] = test: Primary T-cell cytokine production (αCD3/αCD28): GMSCF; format: cell-based, human; conditions: read-out: 1° T-Cell GMSCF IC50
Protocol: (§1) 2E8-4E8 PBMC or proliferating T cells grown in rIL-2 from healthy human donors were suspended in PBS were spun down (1500 rpm, 8-10 minutes) and resuspended in 100 ml RPMI Complete media (1% Pen-Strep, 1% L-Glutamine, 10 mM HEPES). The cells were plated in T175 flasks (37° C., 5% CO2) and monocytes were allowed to adhere for 2-3 hours. After monocyte attachment, non-adherent cells were harvested, counted by hemocytometer, washed several times with PBS then resuspended in Yssels Complete Media (Modified IMDM Media with 1% Human AB Serum, 1% Pen-Strep, 1% L-Glutamine, 10 mM HEPES) at […]. 90 uL of the cell dilution were then added to compounds diluted to 2× in Yssel's media and incubated for 30 minutes at 37° C. (5% CO2). After this preincubation step the compound/cell mixture was transferred to stimulation plates, as described below.
Stimulation plates were prepared by coating 96 well plates with 5 μg/ml αCD3 (BD PharMingen, Catalog #555336)+10 μg/ml αCD28 (Beckman Coulter, Catalog #IM1376) in PBS (no Ca^2+/Mg^2+) at 37° C. (5% CO2) for at 3-5 hours. After incubation with the stimulation antibodies, the cocktail was removed and the plates washed 3 times with PBS prior to addition of the primary T cell/compound mixture.
(§2) The compound/cell mixture was transferred to the stimulation plates and incubated for 18 hr at 37° C. (5% CO2). After the cell stimulation, ˜150 μl supernatant were transferred from each well into 96-well filter plates (Coming PVDF Filter Plates) spun down (2000 rpm, 2-3 minutes) and either used immediately for ELISA or LUMINEX measurements or frozen down at −80° C. for future use.
(§3) Luminex immunoassay multiplexing for TNF, IL-2, GMSCF, IL-4 and IFNg was performed essentially as described by the manufacturer (Upstate Biotechnology). Essentially 50 uL of sample was diluted into 50 uL assay diluent and 50 uL incubation buffer, then incubated with 100 uL of the diluted detection antibody for 1 hr at RT in the dark. The filter plate was washed 2× in Wash Buffer, then incubated with 100 uL of the diluted secondary reagent (SAV-RPE) for 30 min at RT in the dark. Finally the plates were washed 3 times and bead identification and RPE fluorescent measured by the Luminex instrument.
(§4) Varied concentrations of compound were compared to solvent only to determine the inhibition of T-cell activation IC50 of each compound.

[4] = Mouse Reverse Passive Arthus reaction (RPA reaction); format: in vivo, C57BL/6 mice; conditions: oral
Summary of the method: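 C57BL/6 mice dosed with compound before challenge, pretreatment time set by each compound's PK; rabbit anti-OVA IgG (50 μg/mouse) given intradermally, then ovalbumin 20 mg/kg i.v. with 1% Evans blue. Dorsal skin edema and hemorrhage read by dye extravasation at 4 h; purified polyclonal rabbit IgG as control.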

Primary T-cells [5] = test: Primary T-cell cytokine production (αCD3/αCD28): TNF; format: cell-based, human; conditions: read-out: 1° T-Cell TNF IC50
Protocol: as §1
(5% CO2) for at 3-5 hours. After incubation with the stimulation antibodies, the cocktail was removed and the plates washed 3 times with PBS prior to addition of the primary T cell/compound mixture.
as §2, §3, §4

[6] = High Density, read-out: BMMC anti-IgE hexos
[7] = high cell density, read-out: BMMC anti-IgE Hexos.
[8] = 100 mg/kg, pretreatment time 0.5 hrs
[9] = 100 mg/kg, pretreatment time 0.5 hrs + 4 hours
[10] = 100 mg/kg, pretreatment time 1 hrs
[11] = 100 mg/kg, pretreatment time 1 hrs + 4 hours
[12] = 100 mg/kg, pretreatment time 2 hrs
[13] = 100 mg/kg, pretreatment time 2 hrs + 4 hours
[14] = 50 mg/kg, pretreatment time 1 hrs
[15] = 200 mg/kg, 60 minutes prior to challenge
[16] = 200 mg/kg, pretreatment time 1 hrs

Row | Compound | IC50 (Primary T-cells [2]) [nM] | IC50 (Syk kinase) [nM] | IC50 (Primary T-cells [3]) [nM] | % inhibition to vehicle control Edema Size ± SEM [4, 8] [%] | % inhibition to vehicle control Edema Size ± SEM [4, 10] | IC50 (Primary T-cells [5]) [nM] | also measured
1 | COc1ccc(Nc2ncc(F)c(Nc3cccc(O)c3)n2)cc1OC [Compound R926113] | – | – | – | – | – | – | IC50 [1, 6]: 650 nM
2 | Oc1cccc(Nc2ncc(F)c(Nc3cccc(O)c3)n2)c1 [Compound R921218] | 3240 | – | – | – | – | – | IC50 [1, 6]: 133 nM
3 | CC1(C)Oc2ccc(Nc3nc(Nc4cc(Cl)cc(Cl)c4)ncc3F)cc2NC1=O [Compound R927064] | > 10000 | 466 | > 10000 | – | – | – | IC50 [1, 7]: 5 nM
4 | COc1ccc(Nc2ncc(F)c(Nc3ccc(OC)c(OC)c3)n2)cc1OC [Compound R926110] | – | – | – | – | – | – | IC50 [1, 6]: 1000 nM
5 | COc1cc(Nc2ncc(F)c(Nc3ccc4c(c3)NC(=O)C(C)(C)O4)n2)cc(OC)c1 [Compound R927050] | 928 | 114 | 1120 | −0.3 ± 6.6 | 14.9 ± 20.5% and 7 ± 19% | 600 | IC50 [1, 7]: 103 nM; Plasma Concentration ± SEM (ng/ml) Exposure = Pretreatment Time + 4 hours [4, 9]: 619 ± 130 ng/mL; Plasma Concentration ± SEM (ng/ml) Exposure = Pretreatment Time + 4 hours [4, 11]: 837 ± 104 ng/mL and 1018 ± 189 ng/mL; % inhibition to vehicle control Edema Size ± SEM [4, 12]: 64.0 ± 8.9%; Plasma Concentration ± SEM (ng/ml) Exposure = Pretreatment Time + 4 hours [4, 13]: 557 ± 78 ng/mL
6 | CNC(=O)COc1cccc(Nc2ncc(F)c(Nc3ccc4c(c3)NC(=O)C(F)(F)O4)n2)c1 [Compound R921303] | 1020 | – | 1180 | – | 80.5 ± 9.8% and 81.2% | 796 | dose-dependent inhibition of edema formation ([4]; 50 mg/kg): 65.4%; % inhibition to vehicle control Edema Size ± SEM [4, 14]: 64.1 ± 13.3% and 65.4%; dose-dependent inhibition of edema formation ([4]; 100 mg/kg): 81.2%; dose-dependent inhibition of edema formation ([4]; 200 mg/kg): 100%; inhibition of edema formation [4, 15]: 100%; % inhibition to vehicle control Edema Size ± SEM ([4]; 200 mg/kg, pretreatment time 0.5 hrs): 100 ± 0%; Plasma Concentration ± SEM (ng/ml) Exposure = Pretreatment Time + 4 hours ([4]; 200 mg/kg, pretreatment time 0.5 hrs + 4 hours): 3703 ± 785 ng/mL; inhibition of edema formation ([4]; 200 mg/kg, pretreatment time 30 minutes): 100%; % inhibition to vehicle control Edema Size ± SEM [4, 16]: 100 ± 0% and 100%; % inhibition to vehicle control Edema Size ± SEM ([4]; 200 mg/kg, pretreatment time 2 hrs): 93.3 ± 4.4%; Plasma Concentration ± SEM (ng/ml) Exposure = Pretreatment Time + 4 hours ([4]; 200 mg/kg, pretreatment time 2 hrs + 4 hours): 2678 ± 496 ng/mL; inhibition of edema formation ([4]; 200 mg/kg, pretreatment time 120 minutes): 93.6%
7 | CNC(=O)COc1cccc(Nc2ncc(F)c(Nc3ccc(OC(F)(F)F)c(Cl)c3)n2)c1 [Compound R920410] | 3360 | – | 3200 | – | 42.6 ± 15.1% | 2990 | –
8 | Nc1cccc(Nc2ncc(F)c(Nc3cccc(N)c3)n2)c1 [Compound R921302] | 5180 | – | 3210 | 89.44 ± 4.8 | 82.1 ± 10.9% and 92.3 ± 4.2% and 93.2% | 1630 | inhibition of edema formation ([4]; 50 mg/kg, 60 minutes prior to Ab/Ag challenge): 49.9%; % inhibition to vehicle control Edema Size ± SEM [4, 14]: 50.0 ± 6.4% and 49.9%; inhibition of edema (therapeutic) ([4]; 100 mg/kg, 30 minutes post-challenge): 77.5%; inhibition of edema formation ([4]; 100 mg/kg, 60 minutes prior to Ab/Ag challenge): 93.2%; inhibition of edema formation [4, 15]: 99.1%; % inhibition to vehicle control Edema Size ± SEM [4, 16]: 99.1 ± 0.9% and 99.1%
9 | CC1(C)Oc2ccc(Nc3nc(Nc4ccc5cn[nH]c5c4)ncc3F)cc2NC1=O [Compound R940363] | – | 6 | – | −16.4 ± 10.9 | 67.6 ± 12.1% and 61 ± 8% | – | Plasma Concentration ± SEM (ng/ml) Exposure = Pretreatment Time + 4 hours [4, 9]: 32 ± 10 ng/mL; % inhibition to vehicle control Edema Size ± SEM [4, 12]: 52.3 ± 22.7%; Plasma Concentration ± SEM (ng/ml) Exposure = Pretreatment Time + 4 hours [4, 13]: 37 ± 18 ng/mL
10 | CNC(=O)COc1cccc(Nc2ncc(F)c(Nc3cccc(O)c3)n2)c1 [Compound R926508] | 917 | – | – | – | – | – | –
11 | CC1(C)Oc2ccc(Nc3ncc(F)c(Nc4ccc5c(c4)NC(=O)C(C)(C)O5)n3)cc2NC1=O [Compound R940350] | 2990 | 121 | 2450 | −15.6 ± 27.2 | – | – | Plasma Concentration ± SEM (ng/ml) Exposure = Pretreatment Time + 4 hours [4, 9]: 176 ± 58 ng/mL; Plasma Concentration ± SEM (ng/ml) Exposure = Pretreatment Time + 4 hours [4, 11]: 129 ± 55 ng/mL; % inhibition to vehicle control Edema Size ± SEM [4, 12]: 38.9 ± 24.3%; Plasma Concentration ± SEM (ng/ml) Exposure = Pretreatment Time + 4 hours [4, 13]: 96 ± 28 ng/mL
12 | OCCCn1ncc2cc(Nc3ncc(F)c(Nc4ccc(Cl)c(Cl)c4)n3)ccc21 [Compound R935391] | – | 223 | – | – | – | – | IC50 [1, 7]: 250 nM
13 | CNC(=O)COc1cccc(Nc2ncc(F)c(Nc3ccc4c(c3)NCCO4)n2)c1 [Compound R921219] | 546 | 41 | – | – | – | – | –
14 | CNC(=O)COc1cccc(Nc2ncc(F)c(Nc3ccc4c(n3)NC(=O)C(C)(C)O4)n2)c1 [Compound R940347] | 1890 | – | 1610 | 36.7 ± 22.4 | 48.2 ± 5.7% and 48% | 99.2 | inhibition of edema ([4]; 100 mg/kg, 2 hours prior to challenge): 89%; % inhibition to vehicle control Edema Size ± SEM [4, 12]: 88.9 ± 9.1% and 89%
15 | CNC(=O)COc1cccc(Nc2ncc(F)c(Nc3ccc4c(n3)NC(=O)CO4)n2)c1 [Compound R921304] | 2770 | – | 1570 | – | – | 1500 | –
16 | Fc1cnc(Nc2ccc3c(c2)OCCO3)nc1Nc1ccc2c(c1)OCCO2 [Compound R926109] | – | – | – | – | – | – | IC50 [1, 6]: 600 nM
